Here are results for two molecules from patent EP4467141A1, “PYRAZOLO-QUINOLINES AS SELECTIVE INHIBITORS OF GENOTOXIC STRESS-INDUCED IKK/NF- KB PATHWAYS FOR CANCER THERAPY” (Max-Delbrück-Centrum für Molekulare Medizin in der …, priority 2023, dated 2024).

The test system of the assay is U2-OS cells. Put plainly: Cell viability assay. In kind it is cell-based. The following applies: for cell viability, etoposide co-treatment: 10 µM plus etoposide 50 µM, compared to etoposide alone; for cell viability, compound alone: 10 µM, 6, 24, and 48 hours, compared to DMSO. The protocol: Fig.4: MW01 and MW05 reduce cell viability and increase p53-mediated apoptosis upon etoposide co-treatment. (A) Representative light microscopy images of U2-OS cells following treatment with DMSO, MW01 (10 µM), MW05 (10 µM), or etoposide (50 µM), or co-treatment with MW01 (10 µM) and etoposide (50 µM), or MW05 (10 µM) and etoposide (50 µM) at 24 (left) and 48 hours (right). (B) Quantification of cell viability using CellTiter-Fluor Cell Viability Assay at 6, 24, and 48 hours. Treatment with 0.1% SDS 30 minutes prior to assay was used as positive cell death control. (ns: not significant; *, **, ***: p<0.05, p<0.01, p<0.001). (C) U2-OS cells were treated with DMSO, MW01 (10 µM), MW 05 (10 µM), or etoposide (50 µM), or co-treated with MW01 (10 µM) and etoposide (50 µM), or MW05 (10 µM) and etoposide (50 µM), as indicated. After 24 hours, whole cell lysates were prepared and analyzed by Western blotting for p65 phosphorylation (S536), caspase-3 and cleaved caspase-3 (left panel) and for p53 and γH2AX) (right panel). Vinculin was used as loading control.
1×10^4 cells per well were seeded in a 96-well plate and incubated overnight. The day after, cells were treated with 10 µM of compounds under investigation, 50 µM Etoposide or 10 µM Cisplatin, alone or in combination, for appropriate time points. DMSO and 10% of Triton-X100 were used as negative and positive control respectively. Luminescent staining was performed using CellTiter-Glo Luminescent Cell Viability Assay (Promega, G7570), adding in each well a volume of CellTiter-Glo reagent equal to the volume of cell culture medium present into the well. After 1h of incubation at 37°C, luminescence was read by BioTek Cytation 1 Cell Imaging Multimode Reader (Agilent).
We hypothesized that due to the important function of the DNA double strand-induced IKK-NF-κB pathway as in anti-apoptotic signalling (Stilmann et al., 2009), both MW01 and MW05 should sensitize cells to DNA damaging agents, and therefore support their potential use to potentiate genotoxic therapies. To characterize the effect of MW01 and MW05 on cell viability, we treated cells with both compounds alone or in combination with etoposide to induce DNA lesions (Fig. 4A). […] The same effect in cell viability reduction was confirmed for MW01 and MW05 in co-treatment with cisplatin, another widely used chemotherapeutic drug. To investigate the underlying molecular causes of this phenotype, we looked at markers of NF-κB and p53 activation, DNA damage, and apoptosis after single and co-treatment with MW01, MW05, and etoposide (Fig 4C). MW01 and MW05 abrogated etoposide-stimulated p65 phosphorylation, thereby validating our inhibition of IKK and NF-κB activity. […]

Consider `COc1ccc2c(c1OC)c(=O)n1c3ccc(O)cc3c3ccnc2c31` [MW01, 5-Hydroxy-10,11-dimethoxy-9H-benzo[c]indolo[3,2,1-ij][1,5]naphthyridin-9-one], for which the “cell viability, etoposide co-treatment” value is “significantly reduced cell viability after 6 hours” and the “cell viability, compound alone” value is given as “slightly reduced cell viability”.

As for `COc1ccc2cc3c(N)nn(C(=O)c4cccc(N(C)C)c4)c3nc2c1` [MW05, (3-Amino-7-methoxypyrazolo[3,4-b]quinolin-1-yl)-[3-(dimethylamino)phenyl]methanone], the “cell viability, etoposide co-treatment” value is recorded as “significant reduction after 24 hours” and the “cell viability, compound alone” value is recorded as “slightly reduced cell viability”.
